Measured values: PubChem BioAssay (NCI)
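GI50 is the concentration that inhibits growth by half. TGI is the concentration that stops growth completely.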

Columns and labels:
Experiment in all cases: NCI-60 cell line screen, 384-well format
[1] = test system: SN12C renal
[2] = test system: RXF 393 renal
[3] = test system: T-47D breast
[4] = test system: TK-10 renal
[5] = test system: A498 renal
[6] = test system: NCI-H460 NSCLC
[7] = test system: SF-539 CNS
[8] = test system: NCI/ADR-RES ovarian
[9] = test system: IGROV1 ovarian
[10] = test system: BT-549 breast
[11] = test system: UACC-257 melanoma
[12] = test system: M14 melanoma
[13] = test system: A549 NSCLC
[14] = test system: PC-3 prostate
[15] = test system: UO-31 renal
[16] = test system: UACC-62 melanoma
[17] = test system: KM12 colon
[18] = test system: CAKI-1 renal
[19] = test system: DU-145 prostate
[20] = test system: MDA-MB-435 melanoma
[21] = test system: OVCAR-4 ovarian
[22] = test system: HOP-92 NSCLC
[23] = test system: SNB-75 CNS
[24] = test system: SK-OV-3 ovarian
[25] = test system: EKVX NSCLC
[26] = test system: SK-MEL-5 melanoma
[27] = test system: HL-60(TB) leukemia
[28] = test system: NCI-H23 lung
[29] = test system: NCI-H322M lung
[30] = test system: SNB-19 CNS
[31] = test system: NCI-H522 lung
[32] = test system: SF-295 CNS
[33] = test system: HCT-15 colon
[34] = test system: SF-268 CNS
[35] = test system: MDA-MB-468 breast
[36] = test system: ACHN renal
[37] = test system: U251 glioblastoma
[38] = test system: 786-0 renal
[39] = test system: HCC-2998 colon
[40] = test system: SR leukemia
[41] = test system: RPMI-8226 leukemia
[42] = test system: SK-MEL-28 melanoma
[43] = test system: COLO 205 colon
[44] = test system: LOX IMVI melanoma
[45] = test system: HS 578T breast
[46] = test system: NCI-H226 lung
[47] = test system: MALME-3M melanoma
[48] = test system: OVCAR-5 ovarian
[49] = test system: OVCAR-3 ovarian
[50] = test system: HCT-116 colon
[51] = test system: HT29 colon
[52] = test system: MOLT-4 leukemia
[53] = test system: HOP-62 NSCLC
[54] = test system: MCF7 breast
[55] = test system: CCRF-CEM leukemia
[56] = test system: MDA-MB-231 breast
[57] = test system: K-562 leukemia
[58] = test system: SW-620 colon
[59] = test system: OVCAR-8 ovarian

Compound: CO[C@H]1C(=O)[C@]2(C)[C@@H](OC)C[C@H]3OC[C@@]3(OC(C)=O)[C@H]2[C@H](OC(=O)c2ccccc2)[C@]2(O)C[C@H](OC(=O)[C@H](O)[C@@H](NC(=O)OC(C)(C)C)c3ccccc3)C(C)=C1C2(C)C
- GI50 [1]: < 0.01 µM
- TGI [1]: > 100 µM
- GI50 [2]: < 0.01 µM
- TGI [2]: < 0.01 µM
- GI50 [3]: < 0.01 µM
- TGI [3]: 89 µM
- GI50 [4]: < 0.01 µM
- TGI [4]: > 100 µM
- GI50 [5]: < 0.01 µM
- TGI [5]: 44.2 µM
- GI50 [6]: < 0.01 µM
- TGI [6]: < 0.01 µM
- GI50 [7]: < 0.01 µM
- GI50 [8]: 0.0189 µM
- TGI [8]: 0.0548 µM
- GI50 [9]: < 0.01 µM
- TGI [9]: > 100 µM
- GI50 [10]: < 0.01 µM
- TGI [10]: < 0.01 µM
- GI50 [11]: 32.7 µM
- TGI [11]: > 100 µM
- GI50 [12]: < 0.01 µM
- TGI [12]: > 100 µM
- GI50 [13]: < 0.01 µM
- TGI [13]: > 55.1 µM
- GI50 [14]: < 0.01 µM
- TGI [14]: > 80.5 µM
- GI50 [15]: < 0.0128 µM
- TGI [15]: > 100 µM
- GI50 [16]: < 0.01 µM
- TGI [16]: > 49.7 µM
- GI50 [17]: < 0.01 µM
- TGI [17]: > 100 µM
- GI50 [18]: < 0.0131 µM
- TGI [18]: > 69 µM
- GI50 [19]: < 0.01 µM
- TGI [19]: < 0.01 µM
- GI50 [20]: < 0.01 µM
- TGI [20]: < 0.01 µM
- GI50 [21]: < 0.01 µM
- TGI [21]: 31.3 µM
- GI50 [22]: 22.2 µM
- TGI [22]: > 100 µM
- GI50 [23]: < 0.01 µM
- GI50 [24]: < 0.01 µM
- TGI [24]: > 100 µM
- GI50 [25]: < 0.01 µM
- TGI [25]: 39.8 µM
- GI50 [26]: < 0.01 µM
- TGI [26]: < 0.01 µM
- GI50 [27]: < 0.01 µM
- TGI [27]: < 0.01 µM
- GI50 [28]: < 0.01 µM
- TGI [28]: > 100 µM
- TGI [29]: > 100 µM
- GI50 [30]: < 0.01 µM
- TGI [30]: > 100 µM
- GI50 [31]: < 0.01 µM
- TGI [31]: < 0.01 µM
- GI50 [32]: < 0.01 µM
- GI50 [33]: < 0.01 µM
- TGI [33]: > 100 µM
- TGI [34]: > 62.6 µM
- GI50 [35]: < 0.01 µM
- TGI [35]: < 0.01 µM
- TGI [36]: > 100 µM
- GI50 [37]: < 0.01 µM
- TGI [37]: 21.2 µM
- GI50 [38]: < 0.01 µM
- TGI [38]: > 78.8 µM
- GI50 [39]: < 0.01 µM
- TGI [39]: < 0.01 µM
- GI50 [40]: < 0.01 µM
- TGI [40]: < 0.01 µM
- GI50 [41]: < 0.01 µM
- TGI [41]: < 0.01 µM
- GI50 [42]: > 100 µM
- TGI [42]: > 100 µM
- GI50 [43]: < 0.01 µM
- TGI [43]: < 0.01 µM
- GI50 [44]: < 0.0407 µM
- TGI [44]: 22.6 µM
- GI50 [45]: < 0.01 µM
- TGI [45]: < 0.01 µM
- GI50 [46]: < 0.01 µM
- TGI [46]: 18.5 µM
- TGI [47]: > 49.2 µM
- GI50 [48]: < 0.01 µM
- TGI [48]: > 100 µM
- GI50 [49]: < 0.01 µM
- GI50 [50]: < 0.01 µM
- TGI [50]: > 100 µM
- GI50 [51]: < 0.01 µM
- TGI [51]: < 0.01 µM
- GI50 [52]: < 0.01 µM
- TGI [52]: < 0.01 µM
- GI50 [53]: < 0.01 µM
- TGI [53]: > 100 µM
- GI50 [54]: < 0.01 µM
- TGI [54]: > 61.5 µM

Compound: N#Cc1cc(F)cc(Oc2ccc(S(=O)(=O)C(F)F)c3c2CC(F)(F)[C@H]3O)c1
- GI50 [1]: 32.7 µM
- TGI [1]: > 100 µM
- GI50 [2]: 21.3 µM
- TGI [2]: 73.8 µM
- GI50 [55]: 11.6 µM
- TGI [55]: 25.8 µM
- GI50 [3]: 14.9 µM
- TGI [3]: 67.4 µM
- GI50 [4]: 38.4 µM
- TGI [4]: > 100 µM
- GI50 [5]: 19.8 µM
- TGI [5]: 44 µM
- GI50 [6]: 18.1 µM
- TGI [6]: 33.9 µM
- GI50 [7]: 33.6 µM
- TGI [7]: > 100 µM
- GI50 [8]: 16.1 µM
- TGI [8]: 52 µM
- GI50 [9]: 41.6 µM
- TGI [9]: > 100 µM
- GI50 [10]: 21.1 µM
- TGI [10]: 47.2 µM
- GI50 [11]: 19.2 µM
- TGI [11]: 48.7 µM
- GI50 [12]: 33.7 µM
- TGI [12]: > 100 µM
- GI50 [13]: 26.9 µM
- TGI [13]: 86.3 µM
- GI50 [14]: 29.9 µM
- TGI [14]: > 100 µM
- GI50 [56]: 25.4 µM
- TGI [56]: > 100 µM
- GI50 [15]: 36.4 µM
- TGI [15]: > 100 µM
- GI50 [16]: 34.9 µM
- TGI [16]: > 100 µM
- GI50 [17]: 34.5 µM
- TGI [17]: > 100 µM
- GI50 [18]: 38.8 µM
- TGI [18]: > 100 µM
- GI50 [19]: 26.2 µM
- TGI [19]: 90.6 µM
- GI50 [20]: 48.4 µM
- TGI [20]: > 100 µM
- GI50 [57]: 18.3 µM
- TGI [57]: > 100 µM
- GI50 [21]: 14.8 µM
- TGI [21]: 53.2 µM
- GI50 [22]: 16.3 µM
- TGI [22]: 52 µM
- GI50 [23]: 34.4 µM
- TGI [23]: > 100 µM
- GI50 [24]: 26.2 µM
- TGI [24]: > 100 µM
- GI50 [25]: 27.3 µM
- TGI [25]: 97.3 µM
- GI50 [26]: 15.1 µM
- TGI [26]: 29.4 µM
- GI50 [27]: 18.4 µM
- TGI [27]: 33 µM
- GI50 [28]: 14.2 µM
- TGI [28]: 48.5 µM
- GI50 [29]: 39.4 µM
- TGI [29]: > 100 µM
- GI50 [30]: 48.5 µM
- TGI [30]: > 100 µM
- GI50 [31]: 19.8 µM
- TGI [31]: 61.2 µM
- GI50 [32]: 30.2 µM
- TGI [32]: > 100 µM
- GI50 [33]: 27.8 µM
- TGI [33]: > 100 µM
- GI50 [34]: 48.6 µM
- TGI [34]: > 100 µM
- GI50 [35]: 8.94 µM
- TGI [35]: 26 µM
- GI50 [36]: 33.2 µM
- TGI [36]: > 100 µM
- GI50 [38]: 31.6 µM
- TGI [38]: > 100 µM
- GI50 [39]: 41.4 µM
- TGI [39]: > 100 µM
- GI50 [58]: 63.5 µM
- TGI [58]: > 100 µM
- GI50 [40]: 15.7 µM
- TGI [40]: 30.5 µM
- GI50 [41]: 11.8 µM
- TGI [41]: 28.9 µM
- GI50 [42]: 53.3 µM
- TGI [42]: > 100 µM
- GI50 [43]: 38.7 µM
- TGI [43]: > 100 µM
- GI50 [44]: 20 µM
- TGI [44]: 43.1 µM
- GI50 [45]: 20 µM
- TGI [45]: 69.8 µM
- GI50 [46]: 22.7 µM
- TGI [46]: 71.8 µM
- GI50 [47]: 28.8 µM
- TGI [47]: 93.6 µM
- GI50 [48]: 56.4 µM
- TGI [48]: > 100 µM
- GI50 [49]: 25.1 µM
- TGI [49]: 68.5 µM
- GI50 [51]: 43.9 µM
- TGI [51]: > 100 µM
- GI50 [52]: 13.9 µM
- TGI [52]: 27.1 µM
- GI50 [53]: 30 µM
- TGI [53]: > 100 µM
- GI50 [54]: 19.6 µM
- TGI [54]: 55.2 µM
- GI50 [59]: 28.5 µM
- TGI [59]: > 100 µM
